The values below come from PubChem BioAssay AID1552 (Sanford-Burnham Center for Chemical Genomics, 2009).

The source made the active and inactive calls. How the calls were made is not given here. Some results are limits rather than exact numbers.

As usually defined, the Kd is the constant that tells how readily two partners part at equilibrium.

Sequence of Ubiquitin-conjugating enzyme E2 N (Homo sapiens) (P61088 whole entry, looked up): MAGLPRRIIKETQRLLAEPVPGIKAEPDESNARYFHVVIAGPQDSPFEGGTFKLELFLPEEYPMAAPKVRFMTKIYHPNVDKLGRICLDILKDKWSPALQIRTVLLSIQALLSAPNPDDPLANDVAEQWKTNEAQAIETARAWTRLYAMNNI

This assay has as its target Ubiquitin-conjugating enzyme E2 N (Homo sapiens) (UniProt P61088). As to the kind of experiment: NMR detection of UBE2N ligand binding – biophysical, purified protein (AID 1552). Conditions: NMR binding to purified UBE2N.
For `COC1(C)CCC2OC2(C)CCC2C1CC2(C)C` (configuration not stated), the Kd is > 4 mM (inactive).

With `O=c1c(O)c(-c2ccccc2)oc2cc(O)ccc12`, the Kd is > 4 mM (inactive).

In the case of `COC(=O)c1ccc(Cl)c(NC(C)=O)c1`, the Kd is > 4 mM (inactive).

`O=C(O)c1cnc2sc3ccccc3n2c1=O`: the Kd is > 4 mM (inactive).

As for `CSc1nc(C)cc(Oc2ccc(=O)n(C)n2)n1`, the Kd was > 4 mM (inactive).

Take `C=C1CCC2C(CC2(C)C)C(=C)CC/C1=N/O` (configuration not stated): the Kd was > 4 mM (inactive).

Consider `CN(C)S(=O)(=O)c1ccc(C(=O)NN)cc1`, for which the Kd was > 4 mM (inactive).

For the compound `O=C(Nc1ccc2c(c1)CCC2)c1cnccn1`, the Kd was > 4 mM (inactive).

Turning to `CN1CCC(NC(=O)c2cccnc2)CC1`, the Kd is > 4 mM (inactive).

For `O=C(NS(=O)(=O)c1ccccc1)c1ccccc1F`, the Kd was > 4 mM (inactive).

As for `N[C@@H](CCC(=O)N[C@@H](CS)C(=O)NCC(=O)O)C(=O)O`, the Kd was > 4 mM (inactive).

For the compound `COc1ccc(-c2coc3cc(O)ccc3c2=O)c(OC)c1`, the Kd is > 4 mM (inactive).

Consider `Cc1nn(CC(=O)Nc2ccccn2)c(=O)c2ccccc12`, for which the Kd is > 4 mM (inactive).

As for `Cc1cccc(NC(=O)c2ccccc2C(=O)O)c1`, the Kd was > 4 mM (inactive).

Consider `CCCNC(=O)c1cnc2n(c1=O)CCS2`, for which the Kd is > 4 mM (inactive).

For the compound `O=C1C2C3C=CC(C3)C2C(=O)N1c1cccnc1` (configuration not stated), the Kd is > 4 mM (inactive).

For the compound `Fc1ccc2onc(C3CCNCC3)c2c1`, the Kd is > 4 mM (inactive).

For the compound `Cc1occc1C(=O)NCc1ccccn1`, the Kd was > 4 mM (inactive).

For `Cc1nc2ccccc2c(=O)n1NC(=O)Nc1ccccc1`, the Kd is > 4 mM (inactive).

For the compound `COc1ccc(-c2ccc(OC)cc2C(=O)O)cc1`, the Kd was > 4 mM (inactive).

In the case of `Nc1ccc(N2CCOCC2)c(Cl)c1`, the Kd is > 4 mM (inactive).

Turning to `CC(=O)OC1CCC23C(=O)OC45CCC(C6=CC(=O)OC6)C4(C)CCC2C5CCC3(O)C1` (configuration not stated), the Kd is > 4 mM (inactive).

In the case of `CN(C)c1ccc(N2C(=O)CCC2=O)cc1`, the Kd was > 4 mM (inactive).

Turning to `CSc1nnnn1-c1cccc(O)c1`, the Kd is > 4 mM (inactive).

In the case of `COc1ccc(NC(=O)C2CC(=O)N=C(N)S2)cc1` (configuration not stated), the Kd was > 4 mM (inactive).

With `O=C(c1ccco1)N1CCN(Cc2cccc(F)c2)CC1`, the Kd is > 4 mM (inactive).

For the compound `Cc1cc(C)n(-c2ccc(Cl)nn2)n1`, the Kd was > 4 mM (inactive).

`CC(=O)O[C@@H]1CC2C(C)(C)C=CC(=O)[C@]2(C)C2CC[C@@]3(C)[C@H](c4ccoc4)OC(=O)C4OC43[C@@]21C` (some centres not stated): the Kd was > 4 mM (inactive).

Consider `O=C(CC1SC(=O)NC1=O)Nc1ccccc1` (configuration not stated), for which the Kd was > 4 mM (inactive).

In the case of `OCc1ccc(OC(F)(F)F)cc1`, the Kd is > 4 mM (inactive).

Consider `NC(=O)CSc1ccccn1`, for which the Kd is > 4 mM (inactive).

As for `O=C(O)C1CCCN1Cc1c[nH]c2ccccc12` (configuration not stated), the Kd is > 4 mM (inactive).

With `CC(=O)OC(C)(C)[C@@H]1Cc2cc3ccc(=O)oc3cc2O1`, the Kd was > 4 mM (inactive).

For the compound `O=C(O)c1ccc2occc2c1`, the Kd is > 4 mM (inactive).

`O=C1CCC(=O)N1CNc1ccccc1`: the Kd is > 4 mM (inactive).

As to `Cn1cnnc1Sc1ncnc(N)c1[N+](=O)[O-]`, the Kd is > 4 mM (inactive).

Take `Nc1cc2ccccc2cn1`: the Kd was > 4 mM (inactive).

For `O=C(NCc1ccccc1)c1cnsn1`, the Kd is > 4 mM (inactive).

As for `CCOC(=O)c1c(-c2ccncc2)csc1N`, the Kd is > 4 mM (inactive).

Consider `CCn1nnc(NC(=O)c2cc3ccccc3o2)n1`, for which the Kd is > 4 mM (inactive).

Regarding `O=C(NC(=S)NCCO)c1ccccc1`, the Kd is > 4 mM (inactive).

In the case of `Nc1nc(SCc2ccc3c(c2)OCCO3)n[nH]1`, the Kd is > 4 mM (inactive).

Consider `O=C(O)c1ccc2nsnc2c1`, for which the Kd was > 4 mM (inactive).

Regarding `COc1cc(O)ccc1C(C)=O`, the Kd is > 4 mM (inactive).

Take `CC(=O)O[C@H]1C[C@@H](OC(C)=O)C(C)(C)C2C[C@@H](OC(C)=O)[C@]3(C)C(CC[C@@]4(C)[C@H](c5ccoc5)OC(=O)[C@H]5O[C@]543)[C@]21C` (some centres not stated): the Kd was > 4 mM (inactive).

For the compound `O=C(Nc1ccccc1N1CCCC1)c1cccnc1`, the Kd was > 4 mM (inactive).

For `Cc1nc(N2CCOCC2)[nH]c(=O)c1C`, the Kd was > 4 mM (inactive).

`COc1nc(C)ccc1-c1noc(-c2ccco2)n1`: the Kd is > 4 mM (inactive).

In the case of `O=C1CSC2(CN3CCC2CC3)N1` (configuration not stated), the Kd is > 4 mM (inactive).

`O=C(O)C1CC(=O)N(Cc2ccco2)C1` (configuration not stated): the Kd was > 4 mM (inactive).

In the case of `Cc1cc(CN2C(=O)c3ccccc3C2=O)on1`, the Kd was > 4 mM (inactive).

Take `CN1CCN(C(=O)c2ccccc2C(=O)O)CC1`: the Kd was > 4 mM (inactive).

With `Oc1cccc2[nH]ccc12`, the Kd is > 4 mM (inactive).

On to `Cc1nc(-c2cc(CO)no2)cs1`, for which the Kd is > 4 mM (inactive).

For the compound `Cc1ccc(C(C)C)cc2c(C)ccc1-2`, the Kd was > 4 mM (inactive).

In the case of `CNc1nc(SC)nc(N2CCOCC2)n1`, the Kd is > 4 mM (inactive).

On to `COC(=O)CCSCC(=O)Nc1nnc(C)s1`, for which the Kd is > 4 mM (inactive).

As for `CNS(=O)(=O)c1cccs1`, the Kd was > 4 mM (inactive).

In the case of `CN1CCN(C(=O)c2ccccc2N)CC1`, the Kd is > 4 mM (inactive).

As for `CC(C)[C@@H]1CC[C@@H](C)CC1=O`, the Kd was > 4 mM (inactive).

For the compound `NC(=O)c1ccsc1NC(=O)c1ccco1`, the Kd was > 4 mM (inactive).

For `COc1ccc(C(=O)CC(=O)O)c2c1C=CC(C)(C)O2`, the Kd was > 4 mM (inactive).

For the compound `O=C(Nc1ccccc1C(F)(F)F)c1cnccn1`, the Kd was > 4 mM (inactive).

With `Cc1occc1C(=O)N1CCN(S(C)(=O)=O)CC1`, the Kd was > 4 mM (inactive).

With `CN(C)C(=O)N1CCN(C(=O)c2ccco2)CC1`, the Kd was > 4 mM (inactive).

On to `Nc1nc(SCc2ccc3c(c2)OCO3)n[nH]1`, for which the Kd was > 4 mM (inactive).

Consider `CCCc1cc(=O)[nH]c2nnc(SCC(C)=O)n12`, for which the Kd was > 4 mM (inactive).

Turning to `CC(C)NC1CS(=O)(=O)CC1O` (configuration not stated), the Kd was > 4 mM (inactive).

As for `[O-][n+]1onc2c1CCc1c-2nc(-c2ccccc2)n1O`, the Kd was > 4 mM (inactive).

`CNC(=O)c1cc(S(=O)(=O)N(C)C)ccc1Cl`: the Kd is > 4 mM (inactive).

Consider `Cc1cc(-c2ccccc2)nc2cc(C(N)=O)nn12`, for which the Kd was > 4 mM (inactive).

Consider `COc1cc(NC(=O)c2ccccc2)c(C)cc1N`, for which the Kd was > 4 mM (inactive).

`CC(=O)NC1(NC(C)=O)CCN(C)CC1`: the Kd was > 4 mM (inactive).

As to `CC(=O)OC/C=C(\C)CC/C=C(\C)CC/C=C(\C)CC/C=C(\C)CC/C=C(\C)CC/C=C(\C)CC/C=C(\C)CC/C=C(\C)CCC=C(C)C`, the Kd is > 4 mM (inactive).

For `CC(=O)O[C@H]1C[C@@H](OC(C)=O)C(C)(C)C2CC(=O)[C@]3(C)C(CC[C@@]4(C)[C@H](c5ccoc5)OC(=O)[C@H]5O[C@]543)[C@]21C` (some centres not stated), the Kd is > 4 mM (inactive).

With `COC(=O)NNc1ncnc(N)c1[N+](=O)[O-]`, the Kd is > 4 mM (inactive).

On to `Nc1cccc(-c2cnco2)c1`, for which the Kd was > 4 mM (inactive).

For `COc1ccc2nc(SCC(N)=O)[nH]c2c1`, the Kd is > 4 mM (inactive).

For `NNC(=O)c1ccccc1-n1cccc1`, the Kd was > 4 mM (inactive).

Take `CC(C)=CCCC1(C)C=Cc2c(O)c3c(c(CC=C(C)C)c2O1)OC12C(=CC4CC1C(C)(C)OC2(C/C=C(/C)C(=O)O)C4O)C3=O` (configuration not stated): the Kd was > 4 mM (inactive).

As to `CC(=O)Nc1cccc(-c2nnc(-c3ccccc3)o2)c1`, the Kd is > 4 mM (inactive).

With `Cc1cc(C)c(C(N)=O)c(=S)[nH]1`, the Kd was > 4 mM (inactive).

Consider `CN1CCN(C(=O)Nc2cccc3ccccc23)CC1`, for which the Kd is > 4 mM (inactive).

With `c1ccc(-c2noc(-c3cccnc3)n2)nc1`, the Kd was > 4 mM (inactive).

As to `O=S(=O)(Cc1ccccc1)N1CCCCCC1`, the Kd was > 4 mM (inactive).

Regarding `Cc1cc(C)nc(/N=C(/N)N2CCOCC2)n1`, the Kd is > 4 mM (inactive).

For `NC(=O)CNC(=O)c1ccc2ccccc2n1`, the Kd is > 4 mM (inactive).

Regarding `Clc1ccccc1OCc1nc(-c2ccncc2)no1`, the Kd was > 4 mM (inactive).

For the compound `Oc1ccccc1-c1cc(C(F)(F)F)[nH]n1`, the Kd was > 4 mM (inactive).

For the compound `Nc1nnc(SCc2ccccc2Cl)s1`, the Kd was > 4 mM (inactive).

In the case of `Cc1ccc(S(=O)(=O)/N=C2\NC(=O)CS2)cc1`, the Kd was > 4 mM (inactive).

As to `Cc1ccc(C(=O)NC2=NCCS2)o1`, the Kd is > 4 mM (inactive).

In the case of `CC(=O)NS(=O)(=O)c1ccc(C)cc1`, the Kd was > 4 mM (inactive).

`CC(=O)NC(=S)Nc1ccc(N(C)C(C)=O)cc1`: the Kd is > 4 mM (inactive).

Take `OCc1cccs1`: the Kd was > 4 mM (inactive).

On to `CC(C)(O)CC[C@@H](O)[C@](C)(O)C1CC[C@@]2(O)C3=CC(=O)C4C[C@@H](O)[C@@H](O)C[C@]4(C)C3CC[C@]12C` (some centres not stated), for which the Kd is > 4 mM (inactive).

Take `CCOC(=O)c1[nH]cnc1C(=O)OC(C)C`: the Kd is > 4 mM (inactive).

On to `CC(C)(C)NC(=O)N1CCC(C(N)=O)CC1`, for which the Kd was > 4 mM (inactive).

Consider `CC(=O)O[C@@H]1CC[C@@]2(C)C(CC[C@]3(C)C2CC=C2C4CC(C)(C)CC[C@]4(C(=O)O)CC[C@]23C)C1(C)C` (some centres not stated), for which the Kd is > 4 mM (inactive).

As for `CSc1nc2[nH]ncc2c(=O)[nH]1`, the Kd is > 4 mM (inactive).

In the case of `COc1c(-c2coc3cc4c(cc3c2=O)CC(O)C(C)(C)O4)ccc2c1C=CC(C)(C)O2` (configuration not stated), the Kd was > 4 mM (inactive).

With `CC(C)C(=O)NC(=S)N1CCOCC1`, the Kd is > 4 mM (inactive).
